# Patent publication US20220249637A1, “COMBINATION THERAPY OF A CELL-MEDIATED CYTOTOXIC THERAPY AND AN INHIBITOR OF A PROSURVIVAL BCL2 FAMILY PROTEIN” (Juno Therapeutics, Inc., priority 2019, published 2022)
# pIC50: −log10 of the molar value.
# Legend:
# RL spheroids = RL spheroids co-cultured with chronically stimulated anti-CD19 CAR T cells; assay type: cell-based; settings: 8 days
# Description: Anti-CD19 CAR-expressing T cells, generated from healthy donors as described above, were chronically stimulated under conditions to exhaust T cell activity by incubation for 8 days with beads coated in anti-idiotypic (anti-ID) antibody directed against the CAR. After the 8 days of chronic stimulation, the anti-CD19 CAR-expressing T cells were harvested and subsequently co-cultured with RL cells engineered to express NLR for 8 days at an E:T ratio of 1:1. As a control, RL cells were cultured in the absence of anti-CD19 CAR T cells. Subtherapeutic concentrations of the exemplary BCL2 inhibitor venetoclax (0.01 μM or 0.1 μM) were added to the cultures, and the number of cells was assessed over time (FIG. 6A).
# In another experiment, spheroids were generated from CD19-expressing RL cells as previously described, and co-cultured for 8 days with anti-CD19 CAR T cells at an E:T ratio of 1:1 and increasing concentrations of venetoclax (0.01 μM, 0.1 μM, or 1.0 μM), or with only corresponding concentrations of venetoclax. As before, the anti-CD19 CAR T cells were chronically stimulated with anti-ID antibody-coated beads prior to co-culture with the RL spheroids. […] Overall, the size of the RL spheroids cultured with both anti-CD19 CAR T cells and venetoclax decreased more, and with lower concentrations of venetoclax, compared to that of RL spheroids cultured with just venetoclax.
# anti-CD19 CAR T cells = test: CAR T cell viability, ATP luciferin reporter assay after 96 hours anti-idiotypic antibody stimulation; assay type: cell-based, human
# Description: Anti-CD19 CAR-expressing T cell compositions were generated from three human adult donors, substantially as described in Example 1. Anti-CD19 CAR T cells were stimulated for 96 hours with an anti-idiotypic antibody in the presence of an exemplary BCL2 inhibitor venetoclax solubilized in dimethylsulfoxide (DMSO). Control anti-CD19 CAR T cells were stimulated for 96 hours with the anti-idiopathic antibody in the presence of an equal amount of DMSO. Specifically, anti-CD19 CAR-expressing cells were added to the wells of a 96-well plate that had been pre-coated with an anti-idiotypic antibody specific to the scFv of the anti-CD19 CAR-expressing T cells described in Example 1 at a concentration of 30 μg/ml. The cells were cultured in the presence of 5% human serum at 37° C. and 5% CO2. After 96 hours, cells were lysed and ATP from viable cells was detected via a luciferin reporter assay and reported as relative luminescence units. Venetoclax-treated CAR T cell counts were assessed and normalized to DMSO control CAR T cell counts.
# [1] = tested on: cancer cells resistant to CAR T cell-mediated killing; test: T cell-mediated killing of cancer cells by CAR T cells in presence of BCL2 inhibitor; assay type: cell-based; settings: cancers resistant to T cell therapy alone, low doses without activity on tumor alone
# WSU-DLCL2 = test: NucLight Red target cell killing by live cell imaging; assay type: cell-based
# Description: (§1) The cytolytic activity of anti-CD19 CAR T cells against two additional CD19-expressing lymphoma target cells lines, SUDHL6 and WSU-DLCL2, was assessed and compared to cytolytic activity against K562.CD19 target cells. Target cells were engineered with a lentiviral reagent to express NucLight Red (NLR) to permit tracking of target cells by microscopy. Anti-CD19 CAR-expressing T cell compositions were generated from two human adult donors, substantially as described above. Target cells were co-cultured with the donor-derived CAR T cell compositions for up to 120 hours at an E:T ratio of 2.5:1. Red target cell counts were tracked over time by live cell imaging and counts were normalized to the number of red target cells at baseline to determine the fold-change in target cells over time.
# (§2) Anti-CD19 CAR-expressing T cell compositions were generated as described in Example 1 and were cultured with a CD19-expressing lymphoma target cell lines, either SUDHL6, WSU-DLCL2, or Granta-519 at an E:T ratio of 2.5:1. The co-cultures were carried out in the presence of 20 nM or 200 nM of the exemplary BCL2 inhibitor, venetoclax. As controls, target tumor cell lines were incubated only in the presence of the inhibitor or the anti-CD19 CAR T cells. Target cells were labeled with NucLight Red (NLR) to permit tracking of target cells by microscopy and target cell killing was monitored by the loss of fluorescent signal over time, substantially as described in Example 1.
# SUDHL6 = test: as above; assay type: cell-based; settings: venetoclax alone, 200 nM
# Description: as §1, §2
# [2] = tested on: JeKo-1 mantle cell lymphoma cells; test: JeKo-1 murine model of mantle cell lymphoma; assay type: in vivo, NOD scid gamma (NSG) mice
# Description: NOD scid gamma (NSG) mice were injected intravenously with 2×10^6 JeKo-1 mantle cell lymphoma cells (Day −7) and treated daily with 12.5, 25, 50, or 100 mg/kg of the exemplary BCL2 inhibitor venetoclax for 21 days (Day 0 through Day 21). Tumor burden (FIG. 11A) and body weight (FIG. 11B) were assessed over the course of treatment.
# To determine the effects of venetoclax on anti-CD19 CAR T cells in a venetoclax-resistant murine model of MCL, NSG mice were injected intravenously with 2×10^6 JeKo-1 cells on Day −7, and then treated with intravenous infusions of 1×10^6 anti-CD19 CAR T cells, generated substantially as described in previous Example, on Day −1 and Day 0. Venetoclax was administered daily for 21 days (Day 0 to Day 21) at 6.25, 25, or 100 mg/kg. As a control, a subset of mice were only treated with venetoclax. Tumor burden (FIG. 12A), survival (FIGS. 12B and 12C), and CAR T cell number (FIG. 13) were assessed.
structure (smiles),measurement,setting,value
CC1(C)CCC(CN2CCN(c3ccc(C(=O)NS(=O)(=O)c4ccc(NCC5CCOCC5)c([N+](=O)[O-])c4)c(Oc4cnc5[nH]ccc5c4)c3)CC2)=C(c2ccc(Cl)cc2)C1 [venetoclax],tumor size,"RL spheroids; venetoclax 0.01, 0.1 or 1.0 μM in the absence of CAR T cells",decreases in tumor size were only observed with 1 μM venetoclax
same,tumor size,"RL spheroids; with chronically stimulated CAR T cells E:T 1:1, venetoclax 0.01, 0.1 or 1.0 μM",greater decreases in tumor size were seen with increasing concentrations of venetoclax
same,pIC50,"anti-CD19 CAR T cells; T-cell, average among three donors, 5% human serum",5.10
same,percentage of viable anti-CD19 CAR-expressing T cells,anti-CD19 CAR T cells; increasing doses,decreased with increasing doses of venetoclax
same,T cell-mediated killing of cancer cells by a T cell therapy (CAR T cells),[1],improves T cell-mediated killing of cancer cells
same,CD19-directed CAR T cell killing,"WSU-DLCL2; co-culture with anti-CD19 CAR T cells E:T 2.5:1, 20 or 200 nM venetoclax",enhanced
same,tumor cell killing,"WSU-DLCL2; venetoclax alone, 20 nM or 200 nM",did not substantially impact tumor cell killing
same,tumor cell killing,SUDHL6,killing of the sensitive tumor cell line SUDHL6 was achieved
same,tumor volume,"[2]; venetoclax 6.25, 25 or 100 mg/kg daily in combination with CAR T cells, vs untreated and venetoclax-only mice",reduced tumor volume at all measured time points
same,tumor burden,"[2]; venetoclax alone, 6.25, 25 or 100 mg/kg daily for 21 days",increased similarly in untreated mice and mice treated with venetoclax alone
same,tumor burden (bioluminescence imaging),"[2]; venetoclax alone, 12.5, 25, 50 or 100 mg/kg daily for 21 days","resistant to treatment with venetoclax alone, regardless of dose level"
